These compounds were tested against T1, hNPRA (Homo sapiens, UniProt P16066) (assay: NPRA Functional Cell Assay (cGMP HTRF, NPRA HEK JumpIn stable cells)). Conditions: cGMP production, 1 hour at 37° C., 10-point dose response.
T1 construct: expressed in transfected cells
T1 sequence (P16066 33-1061): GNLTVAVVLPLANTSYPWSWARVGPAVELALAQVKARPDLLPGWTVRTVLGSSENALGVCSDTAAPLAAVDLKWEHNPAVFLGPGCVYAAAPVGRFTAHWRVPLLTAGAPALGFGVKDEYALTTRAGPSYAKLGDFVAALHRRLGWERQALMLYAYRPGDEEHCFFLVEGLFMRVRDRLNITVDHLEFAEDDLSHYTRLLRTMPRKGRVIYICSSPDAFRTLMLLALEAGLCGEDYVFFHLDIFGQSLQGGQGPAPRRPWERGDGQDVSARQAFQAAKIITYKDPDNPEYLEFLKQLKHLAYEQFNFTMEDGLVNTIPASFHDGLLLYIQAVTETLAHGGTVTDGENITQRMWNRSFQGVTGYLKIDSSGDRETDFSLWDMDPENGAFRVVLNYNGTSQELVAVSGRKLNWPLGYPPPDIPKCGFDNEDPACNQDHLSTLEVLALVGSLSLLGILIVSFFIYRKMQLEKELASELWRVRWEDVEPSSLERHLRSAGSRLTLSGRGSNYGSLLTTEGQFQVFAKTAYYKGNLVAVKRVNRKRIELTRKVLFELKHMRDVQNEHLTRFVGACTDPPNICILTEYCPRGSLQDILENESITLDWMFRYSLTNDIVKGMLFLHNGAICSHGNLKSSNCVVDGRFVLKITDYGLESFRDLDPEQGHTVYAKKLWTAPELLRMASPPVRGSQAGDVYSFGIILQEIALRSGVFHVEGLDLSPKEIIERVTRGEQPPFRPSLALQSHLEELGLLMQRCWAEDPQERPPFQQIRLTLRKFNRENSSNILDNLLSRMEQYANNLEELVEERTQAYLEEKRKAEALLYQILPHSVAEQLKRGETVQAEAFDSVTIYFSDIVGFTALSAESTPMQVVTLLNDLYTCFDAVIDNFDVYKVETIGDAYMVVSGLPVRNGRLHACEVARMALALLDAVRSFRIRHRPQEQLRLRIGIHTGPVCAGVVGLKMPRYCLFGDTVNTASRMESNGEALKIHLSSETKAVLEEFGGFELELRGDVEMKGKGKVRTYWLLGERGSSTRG
Assay type: cell-based
Summary of the method: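 cGMP HTRF read-out after 1 hour compound treatment at 37° C. of human NPRA-expressing HEK JumpIn cells, 1500 cells/well, in buffer with phosphodiesterase inhibitors IBMX and RO20 (100 uM each). Signal converted to [cGMP] by calibration curve; EC50s fitted by 4-parameter logistic; 50 nM h-ANP as positive response.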
`CN1CC(NC(=O)c2cccc([C@@H](CCN3CCC(c4ccc(C(=O)O)cc4)CC3)NC(=O)c3nc4cc5c(nc4s3)CC[C@H](C(C)(C)C)C5)c2)C1` (racemic) [Example 105, 4-[1-[rac-(3R)-3-[3-[(1-methylazetidin-1-ium-3-yl)carbamoyl]phenyl]-3-[rac-(7S)-7-tert-butyl-5,6,7,8-tetrahydrothiazolo [5,4-b]quinoline-2-carbonyl]amino]propyl]-4-piperidyl]benzoic acid; 2,2,2-trifluoroacetate] showed an EC50 of 0.315 µM.
Compound `CC(C)(C)[C@@H]1CCc2nc3sc(C(=O)N[C@H](CCN4CCC(c5nn[nH]n5)CC4)c4ccc(-c5cnc(O)c(F)c5)cc4)nc3cc2C1` [Example 271, (R)-N-((R)-3-(4-(2H-tetrazol-5-yl)piperidin-1-yl)-1-(4-(5-fluoro-6-hydroxypyridin-3-yl)phenyl)propyl)-7-(tert-butyl)-5,6,7,8-tetrahydrothiazolo[5,4-b]quinoline-2-carboxamide] has an EC50 of 1.1 µM.
Work on `CN1CC(NC(=O)c2cccc([C@@H](CCN3CCC(CC(=O)O)CC3)NC(=O)c3nc4cc5c(nc4s3)CC[C@H](C(C)(C)C)C5)c2)C1` (racemic) [Example 101, 2-[1-[rac-(3R)-3-[3-[(1-methylazetidin-1-ium-3-yl)carbamoyl]phenyl]-3-[[rac-(7S)-7-tert-butyl-5,6,7,8-tetrahydrothiazolo [5,4-b]quinoline-2-carbonyl]amino]propyl]-4-piperidyl]acetic acid; 2,2,2-trifluoroacetate] yielded an EC50 of 0.146 µM.
Compound `COC(=O)C1CCN(CC[C@@H](NC(=O)c2nc3cc4c(nc3s2)CC[C@@](F)(C(C)C)C4)c2ccc(-c3ccnnc3)nc2)CC1` [Example 269, methyl 1-((R)-3-((S)-7-fluoro-7-isopropyl-5,6,7,8-tetrahydrothiazolo[5,4-b]quinoline-2-carboxamido)-3-(6-(pyridazin-4-yl)pyridin-3-yl)propyl)piperidine-4-carboxylate] has an EC50 of 1.85 µM.
For `CCN(CC)CCC(NC(=O)c1cc2cc3c(nc2s1)CC[C@H](C(C)(C)C)C3)c1ccccc1` (stereo partly drawn) [Example 244, (6S)-6-tert-butyl-N-[3-(diethylamino)-1-phenylpropyl]-5,6,7,8-tetrahydrothieno[2,3-b]quinoline-2-carboxamide], the EC50 was 2.2 µM.
`CCS(=O)(=O)c1ccc([C@@H](CCN2CCC(O)CC2)NC(=O)c2nc3cc4c(nc3s2)CC[C@H](C(C)(C)C)C4)cn1` [Example 227, (S)-7-(tert-butyl)-N-((R)-1-(6-(ethylsulfonyl)pyridin-3-yl)-3-(4-hydroxypiperidin-1-yl)propyl)-5,6,7,8-tetrahydrothiazolo[5,4-b]quinoline-2-carboxamide] was tested, and the EC50 was 0.696 µM.
In the case of `CC1([C@H]2CCc3nc4sc(C(=O)N[C@H](CCN5CCC(O)CC5)c5ccc(-c6cn[nH]c6)cc5)nc4cc3C2)CC1` [Example 267, (S)-N-((R)-1-(4-(1H-pyrazol-4-yl)phenyl)-3-(4-hydroxypiperidin-1-yl)propyl)-7-(1-methylcyclopropyl)-5,6,7,8-tetrahydrothiazolo[5,4-b]quinoline-2-carboxamide], the EC50 is reported as 0.655 µM.
`CN(C)S(=O)(=O)Nc1ccc([C@@H](CCN2CC[C@H]2CO)NC(=O)c2nc3cc4c(nc3s2)CC[C@H](C(C)(C)C)C4)cn1` (racemic) [Example 213, rac-(7S)-7-tert-butyl-N-[rac-(1R)-1-[6-(dimethylsulfamoylamino)-3-pyridyl]-3-[rac-(2S)-2-(hydroxymethyl)azetidin-1-ium-1-yl]propyl]-5,6,7,8-tetrahydrothiazolo[5,4-b]quinoline-2-carboxamide; 2,2,2-trifluoroacetate] gave an EC50 of 1.01 µM.
`CC(C)(C)[C@H]1CCc2nc3sc(C(=O)N[C@H](CCN4CCC(O)CC4)c4ccc(-c5ccc(OCCF)nc5)cc4)nc3cc2C1` (racemic) [Example 128, rac-(7S)-7-tert-butyl-N-[rac-(1R)-1-[4-[6-(2-fluoroethoxy)-3-pyridyl]phenyl]-3-(4-hydroxypiperidin-1-ium-1-yl)propyl]-5,6,7,8-tetrahydrothiazolo[5,4-b] quinoline-2-carboxamide; 2,2,2-trifluoroacetate] showed an EC50 of 1.18 µM.
Work on `CC(C)(C)[C@H]1CCc2nc3sc(C(=O)N[C@H](CCN4CCC(O)CC4)c4ccc(-c5cn[nH]c5)nc4)nc3cc2C1` (racemic) [Example 196, rac-(7S)-7-tert-butyl-N-[rac-(1R)-3-(4-hydroxy-1-piperidyl)-1-[6-(1H-pyrazol-4-yl)-3-pyridyl]propyl]-5,6,7,8-tetrahydrothiazolo[5,4-b]quinoline-2-carboxamide] yielded an EC50 of 0.303 µM.
Compound `CC(C)(C)[C@H]1CCc2nc3sc(C(=O)N[C@H](CCN4CCC(O)CC4)c4cccc(NC(=O)CCN)c4)nc3cc2C1` (racemic) [Example 119, [3-oxo-3-[3-[rac-(1R)-3-(4-hydroxy-1-piperidyl)-1-[[rac-(7S)-7-tert-butyl-5,6,7,8-tetrahydrothiazolo [5,4-b]quinoline-2-carbonyl]amino]propyl]anilino]propyl]ammonium; 2,2,2-trifluoroacetate] has an EC50 of 1.21 µM.
For `COC[C@@H]1CCCN1CC[C@@H](NC(=O)c1cc2cc3c(nc2s1)CC[C@H](C(C)(C)C)C3)c1ccc(-c2ccc(=O)[nH]c2)cc1` (racemic) [Example 43, rac-(6S)-6-tert-butyl-N-[rac-(1R)-1-[4-(6-oxo-1H-pyridin-3-yl)phenyl]-3-[rac-(2S)-2-(methoxymethyl)pyrrolidin-1-yl]propyl]-5,6,7,8-tetrahydrothieno[2,3-b]quinoline-2-carboxamide], the EC50 was 0.663 µM.
`CC(C)(C)C1CCc2nc3sc(C(=O)NC(CCN4CCC(O)CC4)c4ccc(N5CCC(O)C5=O)nc4)nc3cc2C1` (racemic) [Example 188, rac-(7S)-7-tert-butyl-N-[rac-(1R)-1-[6-(3-hdyroxy-2-oxo-pyrrolidin-1-yl)-3-pyridyl]-3-(4-hydroxy-1-piperidyl)propyl]-5,6,7,8-tetrahydrothiazolo[5,4-b]quinoline-2-carboxamide] gave an EC50 of 0.938 µM.
`CC(C)(C)[C@H]1CCc2nc3sc(C(=O)N[C@H](CCN4CCC(O)CC4)c4cccc(C(=O)NC5CCNCC5)c4)nc3cc2C1` (racemic) [Example 133, rac-(7S)-7-tert-butyl-N-[rac-(1R)-3-(4-hydroxy-1-piperidyl)-1-[3-(4-piperidylcarbamoyl)phenyl]propyl]-5,6,7,8-tetrahydrothiazolo[5,4-b]quinoline-2-carboxamide] gave an EC50 of 0.117 µM.
With `CC(C)(C)[C@H]1CCc2nc3sc(C(=O)N[C@H](CCN4CCC(O)CC4)c4cccc(C(=O)NC5CCCNC5)c4)nc3cc2C1` (mixture of isomers) [Example 143, rac-(7S)-7-tert-butyl-N-[rac-(1R)-3-(4-hydroxy-1-piperidyl)-1-[3-(3-piperidylcarbamoyl)phenyl]propyl]-5,6,7,8-tetrahydrothiazolo[5,4-b]quinoline-2-carboxamide] the EC50 was 0.276 µM.
`CC(C)(C)[C@H]1CCc2nc3sc(C(=O)N[C@H](CCN4CCC(C(=O)O)CC4)c4ccc(-c5cnc(O)c(F)c5)cc4)nc3cc2C1` [Example 224, sodium 1-((R)-3-((S)-7-(tert-butyl)-5,6,7,8-tetrahydrothiazolo[5,4-b]quinoline-2-carboxamido)-3-(4-(5-fluoro-6-hydroxypyridin-3-yl)phenyl)propyl)piperidine-4-carboxylate] showed an EC50 of 0.198 µM.
